The record followed here is patent US20240360157A1, “TYK2 INHIBITORS” (BIOGEN MA INC., priority 2021, published 2024).

What is called IC50 is the concentration that gives 50% inhibition.

What all share (format): biochemical
Assay [1] concerns the target human TYK2 catalytic kinase (JH1) domain (Homo sapiens (Human), UniProt P29597). In words: ADP-Glo Kinase Assay, recombinant TYK2 catalytic kinase (JH1) domain. To be noted: recombinant JH1 domain 2 nM, 10 μM ATP, JAK3-974 peptide, mean, read-out: TYK2 biochem IC50 (nM) Mean. The essentials: (§1)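 Kinase 4 nM JAK1 / 0.2 nM JAK2 / 0.3 nM JAK3 / 2 nM TYK2; 50 μM peptide; 100 min. Unused ATP depleted, ADP→ATP, luciferase luminescence. 11-pt 3-fold series from 10 or 1 μM; normalized, 4PL fit → IC50.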
Background: ADP-Glo first removes unused ATP, then detects ADP through luciferase.

Assay [2] addresses human JAK1 catalytic kinase (JH1) domain (Homo sapiens (Human), UniProt P23458). The assay is described as follows: ADP-Glo Kinase Assay, recombinant JAK1 catalytic kinase (JH1) domain. To be noted: recombinant JH1 domain 4 nM, 35 μM ATP, JAK3-342 peptide, mean, read-out: JAK1 biochem IC50 (nM) Mean. The essentials:
as §1

The target in assay [3] is human JAK2 catalytic kinase (JH1) domain (Homo sapiens (Human), UniProt O60674). In words: ADP-Glo Kinase Assay, recombinant JAK2 catalytic kinase (JH1) domain. To be noted: recombinant JH1 domain 0.2 nM, 15 μM ATP, JAK3-974 peptide, mean, read-out: JAK2 biochem IC50 (nM) Mean. The essentials:
as §1

The target of assay [4] is human JAK3 catalytic kinase (JH1) domain (Homo sapiens (Human), UniProt P52333). The assay is described as follows: ADP-Glo Kinase Assay, recombinant JAK3 catalytic kinase (JH1) domain. To be noted: recombinant JH1 domain 0.3 nM, 4 μM ATP, JAK3-974 peptide, mean, read-out: JAK3 biochem IC50 (nM) Mean. The essentials:
as §1

Chain of human TYK2 catalytic kinase (JH1) domain (P29597 897-1176): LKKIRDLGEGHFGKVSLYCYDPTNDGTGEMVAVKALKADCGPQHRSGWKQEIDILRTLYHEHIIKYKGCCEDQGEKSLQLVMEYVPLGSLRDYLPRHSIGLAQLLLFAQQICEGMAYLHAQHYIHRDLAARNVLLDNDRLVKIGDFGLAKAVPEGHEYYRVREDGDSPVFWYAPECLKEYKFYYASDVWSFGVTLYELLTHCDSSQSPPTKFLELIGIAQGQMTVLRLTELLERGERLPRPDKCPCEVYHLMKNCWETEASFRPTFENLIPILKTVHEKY
Chain of human JAK3 catalytic kinase (JH1) domain (P52333 822-1111): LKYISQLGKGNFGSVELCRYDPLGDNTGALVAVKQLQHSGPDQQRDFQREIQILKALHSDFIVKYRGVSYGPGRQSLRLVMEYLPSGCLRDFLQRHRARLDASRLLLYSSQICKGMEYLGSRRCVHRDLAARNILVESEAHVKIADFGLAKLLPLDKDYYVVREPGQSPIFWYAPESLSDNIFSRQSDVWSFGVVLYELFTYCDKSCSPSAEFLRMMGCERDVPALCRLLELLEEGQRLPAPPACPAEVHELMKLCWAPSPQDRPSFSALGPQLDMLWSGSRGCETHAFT
Chain of human JAK2 catalytic kinase (JH1) domain (O60674 849-1124): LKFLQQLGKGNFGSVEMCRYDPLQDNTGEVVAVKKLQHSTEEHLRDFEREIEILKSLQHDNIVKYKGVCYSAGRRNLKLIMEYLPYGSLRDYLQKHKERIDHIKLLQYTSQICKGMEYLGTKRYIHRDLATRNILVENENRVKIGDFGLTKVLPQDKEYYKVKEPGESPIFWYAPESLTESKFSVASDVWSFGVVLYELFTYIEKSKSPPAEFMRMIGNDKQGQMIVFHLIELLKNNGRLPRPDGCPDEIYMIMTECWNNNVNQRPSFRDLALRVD
Chain of human JAK1 catalytic kinase (JH1) domain (P23458 875-1153): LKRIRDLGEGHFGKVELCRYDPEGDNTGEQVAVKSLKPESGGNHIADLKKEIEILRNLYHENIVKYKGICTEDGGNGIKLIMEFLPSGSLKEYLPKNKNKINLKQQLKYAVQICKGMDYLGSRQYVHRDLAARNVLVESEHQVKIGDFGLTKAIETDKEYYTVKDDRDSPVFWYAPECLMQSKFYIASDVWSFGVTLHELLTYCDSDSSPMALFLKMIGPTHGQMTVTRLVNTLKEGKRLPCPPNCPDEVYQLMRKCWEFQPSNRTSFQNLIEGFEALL

Consider `Cn1cc(-c2[nH]c3nccc(N4CC5CCC(C4)N5C(=O)[C@@H]4C[C@H]4F)c3c2C#N)cn1` [Example 250, 4-(8-((1S,2R)-2-fluorocyclopropane-1-carbonyl)-3,8-diazabicyclo[3.2.1]octan-3-yl)-2-(1-methyl-1H-pyrazol-4-yl)-1H-pyrrolo[2,3-b]pyridine-3-carbonitrile], for which the IC50 in assay [1] was 7.1 nM; in assay [2], 455 nM; in assay [3] it was 53 nM; in assay [4], 455 nM.

With `Cn1cc(-c2cc3nccc(N4CC5CCC(C4)N5C(=O)[C@@H]4C[C@H]4F)n3n2)cn1` [Example 251, ((1S,2R)-2-fluorocyclopropyl)(3-(2-(1-methyl-1H-pyrazol-4-yl)pyrazolo[1,5-a]pyrimidin-7-yl)-3,8-diazabicyclo[3.2.1]octan-8-yl)methanone], the IC50 in assay [1] is 81 nM; in assay [2] it was 322 nM; in assay [3], 472 nM; in assay [4], 2920 nM.

For the compound `Cn1cc(-c2cn3nccc(N4CC5CCC(C4)N5C(=O)[C@@H]4C[C@H]4F)c3n2)cn1` [Example 252, ((1S,2R)-2-fluorocyclopropyl)(3-(2-(1-methyl-1H-pyrazol-4-yl)imidazo[1,2-b]pyridazin-8-yl)-3,8-diazabicyclo[3.2.1]octan-8-yl)methanone], the IC50 amounted to 4 nM in assay [1], 28 nM in assay [2], 28 nM in assay [3] and 269 nM in assay [4].
